In ChEMBL document CHEMBL5344413, “Discovery of 4-(1,2,4-Oxadiazol-5-yl)azepan-2-one Derivatives as a New Class of Cannabinoid Type 2 Receptor Agonists for the Treatment of Inflammatory Pain” (J Med Chem, 2023):

Legend:
[1] = biological target: T1, Cannabinoid receptor 2 (Homo sapiens, UniProt P34972); test: Agonist activity at human CB2 receptor expressed in CHO cells assessed as inhibition of forskolin-stimulated intracellular cAMP accumulation measured after 30 mins by Glosensor assay; assay type: functional, cell-based
[2] = biological target: T2, Cannabinoid receptor 1 (Homo sapiens, UniProt P21554); test: Agonist activity at human CB1 receptor expressed in CHO cells assessed as inhibition of forskolin-stimulated intracellular cAMP accumulation measured after 30 mins by Glosensor assay; assay type: cell-based
[3] = biological target: T1, Cannabinoid receptor 2; test: Agonist activity at human CB2 receptor expressed in CHO cells assessed as inhibition of forskolin-stimulated intracellular cAMP accumulation measured after 30 mins by Glosensor assay relative to control; assay type: functional, cell-based; settings: filed as agonist
[4] = species: Homo sapiens; test: Selectivity ratio of EC50 for agonist activity at human CB1 receptor expressed in CHO cells to EC50 for agonist activity at human CB2 receptor expressed in CHO cells; assay type: cell-based
[5] = biological target: T2, Cannabinoid receptor 1; test: Inverse agonist activity at human CB1 receptor expressed in CHO cells assessed as forskolin-stimulated intracellular cAMP accumulation measured after 30 mins by Glosensor assay; assay type: cell-based
[6] = biological target: T1, Cannabinoid receptor 2; test: Inverse agonist activity at human CB2 receptor expressed in CHO cells assessed as forskolin-stimulated intracellular cAMP accumulation measured after 30 mins by Glosensor assay; assay type: functional, cell-based

T2 sequence (P21554 whole entry): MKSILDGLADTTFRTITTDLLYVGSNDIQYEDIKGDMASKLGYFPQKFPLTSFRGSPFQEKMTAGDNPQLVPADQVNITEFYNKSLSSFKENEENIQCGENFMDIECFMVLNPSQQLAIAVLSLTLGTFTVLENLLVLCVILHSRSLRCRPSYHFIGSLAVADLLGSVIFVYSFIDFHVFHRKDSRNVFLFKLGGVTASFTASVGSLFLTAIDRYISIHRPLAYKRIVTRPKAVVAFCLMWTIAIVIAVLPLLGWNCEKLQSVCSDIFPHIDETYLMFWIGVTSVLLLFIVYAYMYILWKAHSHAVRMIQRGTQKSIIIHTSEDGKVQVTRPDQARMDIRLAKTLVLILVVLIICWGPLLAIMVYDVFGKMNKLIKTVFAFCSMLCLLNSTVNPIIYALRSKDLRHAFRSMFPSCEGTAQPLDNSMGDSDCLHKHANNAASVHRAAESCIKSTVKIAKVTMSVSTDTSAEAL
T1 sequence (P34972 whole entry): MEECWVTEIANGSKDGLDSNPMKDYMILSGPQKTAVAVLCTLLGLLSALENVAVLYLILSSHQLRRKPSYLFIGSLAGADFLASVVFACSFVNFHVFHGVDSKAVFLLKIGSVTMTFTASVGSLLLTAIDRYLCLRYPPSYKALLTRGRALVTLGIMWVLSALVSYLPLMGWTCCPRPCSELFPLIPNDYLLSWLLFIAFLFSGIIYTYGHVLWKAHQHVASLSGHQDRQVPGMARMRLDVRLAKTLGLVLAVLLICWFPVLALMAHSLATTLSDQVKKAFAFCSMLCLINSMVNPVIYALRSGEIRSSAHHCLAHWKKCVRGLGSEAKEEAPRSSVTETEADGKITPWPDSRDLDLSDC

Row | Compound | EC50 [1] [µM] | Emax [3] [%] | EC50 [6] [µM] | EC50 [2] [µM] | Ratio EC50 [4] | EC50 [5] [µM]
1 | O=C1CC(c2nc(Cc3cccc(F)c3)no2)CCCN1c1ccc(F)cc1 (centres undefined) | > 10 | – | – | > 10 | – | –
2 | O=C1CC(c2nc(-c3ccc(F)c4cn[nH]c34)no2)CCCN1c1cccc(F)c1F (centres undefined) | 0.332 | 92 | – | > 10 | – | –
3 | O=C(c1ccc(F)cc1)N1CC(c2nc(-c3ccccc3)no2)C1 | > 10 | – | – | > 10 | – | –
4 | O=C1CC(c2nc(-c3ccccc3)no2)CCCN1c1ccc(F)cc1 (centres undefined) | 2.81 | 78 | – | > 30 | > 10 | –
5 | O=C1CC(c2nc(-c3ccc(F)c4cn[nH]c34)no2)CCCN1c1ccc(Cl)cc1 (centres undefined) | 0.805 | 112 | – | > 10 | – | –
6 | O=C1CC(c2nc(Cc3ccc(F)cc3)no2)CCCN1c1ccc(F)cc1 (centres undefined) | > 10 | – | – | > 10 | – | –
7 | O=C1CC(c2nc(-c3ccc(F)c4cn[nH]c34)no2)CCCN1c1ccccc1F (centres undefined) | 0.0454 | 93 | – | > 10 | – | –
8 | O=C1CC(c2nc(-c3ccc(F)c4cn[nH]c34)no2)CCCN1c1cc(F)c(F)c(F)c1 (centres undefined) | 0.338 | 102 | – | – | – | > 10
9 | O=C1C=C(c2nc(-c3ccccc3)no2)CCCN1c1ccc(F)cc1 | > 10 | – | – | > 10 | – | –
10 | O=C1CC(c2nc(Cc3ccccc3F)no2)CCCN1c1ccc(F)cc1 (centres undefined) | > 10 | – | – | > 10 | – | –
11 | Cc1ccc(N2CCCC(c3nc(-c4ccc(F)c5cn[nH]c45)no3)CC2=O)cc1 (centres undefined) | 1.35 | 82 | – | > 10 | – | –
12 | O=C1CC(c2nc(-c3ccccc3)no2)CCN1c1ccc(F)cc1 (centres undefined) | > 10 | – | – | > 10 | – | –
13 | O=C1CC(c2nc(-c3ccc(F)c4cn[nH]c34)no2)CCCN1c1ccc(F)c(F)c1 (centres undefined) | 0.318 | 81 | – | > 10 | – | –
14 | O=C1CC(c2nc(-c3ccc(F)c4cn[nH]c34)no2)CCCN1c1cccc(F)c1 (centres undefined) | 1.31 | 79 | – | > 10 | – | –
15 | O=C1CC(c2nc(-c3ccc(F)c4cn[nH]c34)no2)CCCN1c1ccc(OC(F)(F)F)cc1 (centres undefined) | 2.05 | 74 | – | > 10 | – | –
16 | O=C(NCCc1nc(-c2ccccc2)no1)c1ccc(F)cc1 | – | – | > 10 | > 10 | – | –
17 | Fc1ccc(Nc2ccc(-c3nc(-c4ccccc4)no3)cc2)cc1 | > 10 | – | – | > 10 | – | –
18 | CC(=O)c1ccc(N2CCCC(c3nc(-c4ccc(F)c5cn[nH]c45)no3)CC2=O)cc1 (centres undefined) | > 10 | – | – | > 10 | – | –
19 | O=C1CC(c2nc(Cc3ccccc3)no2)CCCN1c1ccc(F)cc1 (centres undefined) | > 10 | – | – | > 10 | – | –
20 | O=C1CC(c2nc(-c3ccc(F)c4cn[nH]c34)no2)CCCN1c1ccccc1 (centres undefined) | 0.3 | 88 | – | > 10 | – | –
21 | O=C1CC(c2nc(-c3ccc(Cl)cc3)no2)CCCN1c1ccc(F)cc1 (centres undefined) | > 10 | – | – | > 10 | – | –
22 | Fc1ccc(Nc2cccc(-c3nc(-c4ccccc4)no3)c2)cc1 | > 10 | – | – | > 10 | – | –
23 | COc1ccc(N2CCCC(c3nc(-c4ccc(F)c5cn[nH]c45)no3)CC2=O)cc1 (centres undefined) | 1.21 | 101 | – | > 10 | – | –
24 | O=C1CC(c2nc(-c3ccc(F)c4cn[nH]c34)no2)CCCN1c1ccc(F)cc1F (centres undefined) | 0.11 | 100 | – | > 10 | – | –
25 | CN1CCCC(c2nc(-c3ccc(F)c4cn[nH]c34)no2)CC1=O (centres undefined) | > 10 | – | – | > 10 | – | –
26 | O=C(c1ccc(F)cc1)N1CCC(c2nc(-c3ccccc3)no2)CC1 | > 10 | – | – | > 10 | – | –
27 | O=C1CC(c2nc(-c3ccncc3)no2)CCCN1c1ccc(F)cc1 (centres undefined) | > 10 | – | – | > 10 | – | –
28 | O=C(c1ccc(F)cc1)N1CC2(CC(c3nc(-c4ccccc4)no3)C2)C1 | > 10 | – | – | > 10 | – | –

Further lines, with some results ahead:

Row | EC50 [1] [µM] | Emax [3] [%] | EC50 [6] [µM] | Compound | EC50 [2] [µM] | Ratio EC50 [4] | EC50 [5] [µM]
29 | > 10 | – | – | O=C1CC(c2nc(-c3ccccc3F)no2)CCCN1c1ccc(F)cc1 (centres undefined) | > 10 | – | –
30 | > 10 | – | – | O=C1CC(c2nc(-c3ccc(F)cc3F)no2)CCCN1c1ccc(F)cc1 (centres undefined) | > 10 | – | –
31 | 0.445 | 91 | – | COc1cc(F)ccc1-c1noc(C2CCCN(c3ccc(F)cc3)C(=O)C2)n1 (centres undefined) | > 10 | – | –
32 | 0.449 | 123 | – | O=C1CC(c2nc(-c3ccc(F)c4cc[nH]c34)no2)CCCN1c1ccc(F)cc1 (centres undefined) | > 10 | – | –
33 | 1.39 | 91 | – | O=C1CC(c2nc(-c3ccc(F)cc3)no2)CCCN1c1ccc(F)cc1 (centres undefined) | > 10 | – | –
34 | 1.21 | 97 | – | O=C1CC(c2nc(-c3ccc(F)c4ccccc34)no2)CCCN1c1ccc(F)cc1 (centres undefined) | > 10 | – | –
35 | 0.0348 | 102 | – | O=C1C[C@H](c2nc(-c3ccc(F)c4cn[nH]c34)no2)CCCN1c1ccc(F)cc1 | > 30 | – | –
36 | > 10 | – | – | O=C1CC(c2nc(-c3ccc(F)c4cn[nH]c34)no2)CCCN1c1ccc(C(F)(F)F)cc1 (centres undefined) | > 10 | – | –
37 | > 10 | – | – | O=C1CC(c2nc(-c3ccc(F)cc3C(F)(F)F)no2)CCCN1c1ccc(F)cc1 (centres undefined) | > 10 | – | –
38 | 3.3 | – | – | Cc1cc(F)ccc1-c1noc(C2CCCN(c3ccc(F)cc3)C(=O)C2)n1 (centres undefined) | > 10 | – | –
39 | > 10 | – | – | O=C1CC(c2nc(-c3ccc(F)cn3)no2)CCCN1c1ccc(F)cc1 (centres undefined) | > 10 | – | –
40 | 0.0587 | 80 | – | O=C1C[C@@H](c2nc(-c3ccc(F)c4cn[nH]c34)no2)CCCN1c1ccc(F)cc1 | > 30 | – | –
41 | 2.12 | 97 | – | O=C1CC(c2nc(-c3cccc(F)c3)no2)CCCN1c1ccc(F)cc1 (centres undefined) | > 10 | – | –
42 | > 10 | – | – | O=C1CC(c2nc(-c3ccc(F)cc3Cl)no2)CCCN1c1ccc(F)cc1 (centres undefined) | > 10 | – | –
